Source: patent US8623862B2, “Derivatives of N-[(1H-pyrazol-1-yl)aryl]-1H-indole or 1H-indazole-3-carboxamide, preparation thereof and applications thereof in therapeutics” (Sanofi, priority 2011, dated 2014)
Where a name gives a salt, the structure may show the parent alone. Read-outs that look alike come from different tables or passages of the source. One block for each molecule: values may come before it.

How the values were obtained:
platelet aggregation [1] = test: Inhibition of platelet aggregation in vitro (rat blood); format: cell-based;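 as to Inhibition of platelet aggregation in vitro (rat blood) in μM: aggregation induced by ADP added as 4 µL of a 250 µM solution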
Procedure, shortened: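 Platelet-rich plasma from male Sprague-Dawley rats (250-300 g), prepared by centrifugation at 300 g for 5 minutes. Aggregation measured at 37° C in an aggregometer. Percentage inhibition derived from area under the absorbance curve over 6 minutes.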

platelet aggregation [2] = test: Inhibition of platelet aggregation ex vivo (rat blood); format: in vivo; conditions: for inhibition at 10 mg/kg: read-out: Inhibition of platelet aggregation ex vivo (rat blood) in %, Gavage (oral) 10 mg/kg
Method: Inhibition of Platelet Aggregation Ex Vivo (Rat Blood)
Male rats of the Sprague-Dawley strain, weighing 250-300 g, are used at a rate of 6 animals per batch. Each test compound is diluted in a solution of glucose-containing water (glucose 5%) containing 5% of cremophore and 3% of glycofurol.
The compounds according to the invention are administered by stomach tube (10 ml/kg at 1 mg/ml) two hours before taking the sample or by infusion (1 ml/kg at 10 mg/ml) two hours before taking the sample.
The platelet-rich plasma (PRP) is obtained by centrifugation of the blood at 300 g for 5 minutes, and the measurements of platelet aggregation are performed as described above.
The results are calculated using the area under the curve of absorbance measured for 6 minutes, and expressed as percentage (%) of inhibition.

[3] = Platelet, 2 h, rat, gavage (oral), 10 mg/kg, two hours before taking the sample
[4] = rat blood, in vitro, read-out: Inhibition of platelet aggregation in vitro (rat blood);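 as to Inhibition of platelet aggregation in vitro (rat blood) in μM: aggregation induced by ADP added as 4 µL of a 250 µM solution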
[5] = rat, gavage (oral), 10 mg/kg, two hours before taking the sample
[6] = 0.1 h, rat platelet-rich plasma, ADP-induced aggregation, area under the curve of absorbance for 6 minutes, read-out: Inhibition of platelet aggregation in vitro (rat blood);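 as to Inhibition of platelet aggregation in vitro (rat blood) in μM: aggregation induced by ADP added as 4 µL of a 250 µM solution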
[7] = rat, 10 mg/kg, two hours before taking the sample
[8] = Rattus norvegicus, Platelet, 0.1 h, read-out: Inhibition of platelet aggregation in vitro (rat blood) in μM
[9] = Rattus norvegicus, Platelet, po, 2 h
[10] = rat platelet-rich plasma, ADP-induced aggregation, area under the curve of absorbance for 6 minutes, read-out: Inhibition of platelet aggregation in vitro (rat blood);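 as to Inhibition of platelet aggregation in vitro (rat blood) in μM: aggregation induced by ADP added as 4 µL of a 250 µM solution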

Structure (SMILES): CCCC(=O)c1cnn(-c2ccc(NC(=O)c3cn(CC(=O)N4CCN(CCOC)CC4)c4ccc(Cl)cc34)cc2)c1C [Compound 105, N-[4-(4-Butyryl-5-methyl-1H-pyrazol-1-yl)phenyl]-5-chloro-1-{2-[4-(2-methoxyethyl)piperazin-1-yl]-2-oxoethyl}-1H-indole-3-carboxamide hydrochloride]
IC50 (platelet aggregation [1]; Platelet, rat blood, in vitro, read-out: Inhibition of platelet aggregation in vitro (rat blood)): 0.32 µM | inhibition at 10 mg/kg (platelet aggregation [2]; [3]): 67.9%

Structure (SMILES): CCCC(=O)c1cnn(-c2ccc(NC(=O)c3cn(CC(=O)N4CCN(CC(C)=O)CC4)c4ccc(Cl)cc34)cc2)c1C.Cl [Compound 276, N-[4-(4-Butyryl-5-methyl-1H-pyrazol-1-yl)phenyl]-5-chloro-1-{2-oxo-2-[4-(2-oxopropyl)piperazin-1-yl]ethyl}-1H-indole-3-carboxamide hydrochloride]
IC50 (platelet aggregation [1]; [6]): 0.22 µM | inhibition at 10 mg/kg (platelet aggregation [2]; [3]): 49.9% | melting point: 248 °C

Structure (SMILES): CCCC(=O)c1cnn(-c2ccc(NC(=O)c3cn(CC(=O)N4CCN(Cc5ccc(F)cc5)CC4)c4ccc(C)cc34)cc2)c1C.Cl [Compound 147]
IC50 (platelet aggregation [1]; [4]): 0.19 µM | Inhibition of platelet aggregation ex vivo (rat blood) in %, Gavage (oral) 10 mg/kg (platelet aggregation [2]; [5]): 74.9%

Structure (SMILES): CCCC(=O)c1cnn(-c2ccc(NC(=O)c3cn(CC(=O)N4CCN(Cc5cc(C)on5)CC4)c4ccc(Cl)cc34)cc2)c1C.Cl [Compound 166]
Inhibition of platelet aggregation ex vivo (rat blood) in %, Gavage (oral) 10 mg/kg (platelet aggregation [2]; [5]): 72.0%

Structure (SMILES): CCCC(=O)c1cnn(-c2ccc(NC(=O)c3cn(CC(=O)N4CC(C)N(C)C(C)C4)c4ccc(Cl)cc34)cc2)c1C.Cl (centres unmarked) [Compound 262, N-[4-(4-Butyryl-5-methyl-1H-pyrazol-1-yl)phenyl]-5-chloro-1-[2-oxo-2-(3,4,5-trimethylpiperazin-1-yl)ethyl]-1H-indole-3-carboxamide hydrochloride]
inhibition at 10 mg/kg (platelet aggregation [2]; [3]): 58.8% | melting point: 217 °C

Structure (SMILES): CCCC(=O)c1cnn(-c2ccc(NC(=O)c3cn(CC(=O)N4CCN(CCOC)CC4)c4ccc(Cl)cc34)nn2)c1C [Compound 29, N-[6-(4-Butyryl-5-methyl-1H-pyrazol-1-yl)pyridazin-3-yl]-5-chloro-1-{2-[4-(2-methoxyethyl)piperazin-1-yl]-2-oxoethyl}-1H-indole-3-carboxamide hydrochloride]
IC50 (platelet aggregation [1]; [8]): 0.08 µM | inhibition at 1 mg/kg (platelet aggregation [2]; Rattus norvegicus, Platelet, iv, 2 h, read-out: Inhibition of platelet aggregation ex vivo (rat blood) in %, Infusion (Intravenous) 1 mg/kg): 76% | inhibition at 10 mg/kg (platelet aggregation [2]; [9]): 86.3%

Structure (SMILES): CCCC(=O)c1cnn(-c2ccc(NC(=O)c3cn(CC(=O)N4CCN(CCOC(C)=O)CC4)c4ccc(Cl)cc34)cc2)c1C.Cl [Compound 275, 2-{4-[(3-{[4-(4-Butyryl-5-methyl-1H-pyrazol-1-yl)phenyl]carbamoyl}-5-chloro-1H-indol-1-yl)acetyl]piperazin-1-yl}ethyl acetate hydrochloride]
IC50 (platelet aggregation [1]; [6]): 0.2 µM | melting point: 160 °C

Structure (SMILES): CCCC(=O)c1cnn(-c2ccc(NC(=O)c3cn(CC(=O)N4CCN(C)CC4)c4ccc(Cl)cc34)c(C#N)c2)c1C [Compound 219]
IC50 (platelet aggregation [1]; [4]): 0.54 µM | Inhibition of platelet aggregation ex vivo (rat blood) in %, Gavage (oral) 10 mg/kg (platelet aggregation [2]; [5]): 65.1%

Structure (SMILES): CCCC(=O)c1cnn(-c2ccc(NC(=O)c3cn(CC(=O)N4CCN(C)CC4)c4ccc(Cl)cc34)nn2)c1C [Compound 28, N-[6-(4-Butyryl-5-methyl-1H-pyrazol-1-yl)pyridazin-3-yl]-5-chloro-1-[2-(4-methylpiperazin-1-yl)-2-oxoethyl]-1H-indole-3-carboxamide hydrochloride]
IC50 (platelet aggregation [1]; [8]): 0.06 µM | inhibition at 3 mg/kg (platelet aggregation [2]; Rattus norvegicus, Platelet, iv, 2 h, read-out: Inhibition of platelet aggregation ex vivo (rat blood) in %, Infusion (Intravenous) 3 mg/kg): 79% | inhibition at 10 mg/kg (platelet aggregation [2]; [9]): 73.5%

Structure (SMILES): CCCC(=O)c1cnn(-c2ccc(NC(=O)c3cn(CC(=O)O)c4ccc(C)cc34)cc2)c1C [Compound 11]
IC50 (platelet aggregation [1]; [10]): 9.6 µM | Inhibition of platelet aggregation ex vivo (rat blood) in %, Infusion (Intravenous) 10 mg/kg (platelet aggregation [2]; [7]): 40.7%

Structure (SMILES): CCCC(=O)c1cnn(-c2ccc(NC(=O)c3cn(CC(=O)N4CCN(CCOC)CC4)c4ccc(C)cc34)cc2)c1C.Cl [Compound 119]
IC50 (platelet aggregation [1]; [4]): 0.18 µM | Inhibition of platelet aggregation ex vivo (rat blood) in %, Gavage (oral) 10 mg/kg (platelet aggregation [2]; [5]): 61.1%

Structure (SMILES): CCCC(=O)c1cnn(-c2ccc(NC(=O)c3cn(CC(=O)N4CCN(C)CC4)c4cc(C)c(C)cc34)cc2)c1C.Cl [Compound 107]
IC50 (platelet aggregation [1]; [4]): 0.3 µM | Inhibition of platelet aggregation ex vivo (rat blood) in %, Gavage (oral) 10 mg/kg (platelet aggregation [2]; [5]): 36.8% | Inhibition of platelet aggregation ex vivo (rat blood) in %, Infusion (Intravenous) 10 mg/kg (platelet aggregation [2]; [7]): 57.8%

Structure (SMILES): CCCC(=O)c1cnn(-c2ccc(NC(=O)c3cn(CC(=O)N4CCN5CCNC(=O)C5C4)c4ccc(Cl)cc34)cc2)c1C.Cl (centres unmarked) [Compound 273, N-[4-(4-Butyryl-5-methyl-1H-pyrazol-1-yl)phenyl]-5-chloro-1-[2-oxo-2-(9-oxooctahydro-2H-pyrazino[1,2-a]pyrazin-2-yl)ethyl]-1H-indole-3-carboxamide hydrochloride]
IC50 (platelet aggregation [1]; [6]): 0.29 µM | melting point: 230 °C

Structure (SMILES): CCCC(=O)c1cnn(-c2ccc(NC(=O)c3cn(CC(=O)N4CCN5CCN(C)C(=O)C5C4)c4ccc(Cl)cc34)cc2)c1C (centres unmarked) [Compound 274, N-[4-(4-Butyryl-5-methyl-1H-pyrazol-1-yl)phenyl]-5-chloro-1-[2-(8-methyl-9-oxooctahydro-2H-pyrazino[1,2-a]pyrazin-2-yl)-2-oxoethyl]-1H-indole-3-carboxamide hydrochloride]
IC50 (platelet aggregation [1]; [6]): 0.1 µM | inhibition at 10 mg/kg (platelet aggregation [2]; [3]): 82.7%

Structure (SMILES): CCCC(=O)c1cnn(-c2ccc(NC(=O)c3cn(CC(=O)N4CCN(C)C(C(=O)NC)C4)c4ccc(Cl)cc34)cc2)c1C (centres unmarked) [Compound 272, N-[4-(4-butyryl-5-methyl-1H-pyrazol-1-yl)phenyl]-5-chloro-1-{2-[4-methyl-3-(methylcarbamoyl)piperazin-1-yl]-2-oxoethyl}-1H-indole-3-carboxamide]
IC50 (platelet aggregation [1]; [6]): 0.21 µM | melting point: 274 °C

Structure (SMILES): CCCC(=O)c1cnn(-c2ccc(NC(=O)c3cn(CC(=O)N4CCN5CCCCC5C4)c4ccc(Cl)cc34)nn2)c1C (racemic) [Compound 67]
IC50 (platelet aggregation [1]; [10]): 0.09 µM

The next lines start with results.

IC50 (platelet aggregation [1]; [4]): 0.17 µM
Structure (SMILES): CCCC(=O)c1cnn(-c2ccc(NC(=O)c3cn(CC(=O)N4CCN(C(C)COC)CC4)c4ccc(Cl)cc34)cc2)c1C.Cl (centres unmarked) [Compound 179]
Inhibition of platelet aggregation ex vivo (rat blood) in %, Gavage (oral) 10 mg/kg (platelet aggregation [2]; [5]): 76.1%

IC50 (platelet aggregation [1]; [4]): 0.32 µM
Structure (SMILES): CCCC(=O)c1cnn(-c2ccc(NC(=O)c3cn(CC(=O)N4CCN(C)CC4)c4ccc(Cl)cc34)cc2)c1C.Cl [Compound 115]
Inhibition of platelet aggregation ex vivo (rat blood) in %, Gavage (oral) 10 mg/kg (platelet aggregation [2]; [5]): 50.6% | Inhibition of platelet aggregation ex vivo (rat blood) in %, Infusion (Intravenous) 10 mg/kg (platelet aggregation [2]; [7]): 78.2%

IC50 (platelet aggregation [1]; [4]): 0.24 µM
Structure (SMILES): CCCC(=O)c1cnn(-c2ccc(NC(=O)c3cn(CC(=O)N4CCN(C(C)(C)COC)CC4)c4ccc(Cl)cc34)cc2)c1C.Cl [Compound 180]
Inhibition of platelet aggregation ex vivo (rat blood) in %, Gavage (oral) 10 mg/kg (platelet aggregation [2]; [5]): 65.1%

melting point: 187 °C
Structure (SMILES): CCCC(=O)c1cnn(-c2ccc(NC(=O)c3cn(CC(=O)N4CC(C)N(CCOC)C(C)C4)c4ccc(Cl)cc34)cc2)c1C.Cl (centres unmarked)

IC50 (platelet aggregation [1]; [4]): 0.12 µM
Structure (SMILES): CCCC(=O)c1cnn(-c2ccc(NC(=O)c3cn(CC(=O)N4CCCC4C(F)(F)F)c4ccc(Cl)cc34)cc2)c1C (centres unmarked) [Compound 170]
Inhibition of platelet aggregation ex vivo (rat blood) in %, Gavage (oral) 10 mg/kg (platelet aggregation [2]; [5]): 71.5%

IC50 (platelet aggregation [1]; [4]): 0.25 µM
Structure (SMILES): CCCC(=O)c1cnn(-c2ccc(NC(=O)c3cn(CC(=O)N4CCN(CCOCCOC)CC4)c4ccc(Cl)cc34)cc2)c1C.Cl [Compound 145]
Inhibition of platelet aggregation ex vivo (rat blood) in %, Gavage (oral) 10 mg/kg (platelet aggregation [2]; [5]): 53.7%

IC50 (platelet aggregation [1]; [4]): 0.13 µM
Structure (SMILES): CCCC(=O)c1cnn(-c2ccc(NC(=O)c3cn(CC(=O)N4CCN(CCF)CC4)c4ccc(Cl)cc34)cc2)c1C.Cl [Compound 142]
Inhibition of platelet aggregation ex vivo (rat blood) in %, Gavage (oral) 10 mg/kg (platelet aggregation [2]; [5]): 76.5%

IC50 (platelet aggregation [1]; [4]): 0.37 µM
Structure (SMILES): CCCC(=O)c1cnn(-c2ccc(NC(=O)c3cn(CC(=O)N4CCN(C)CC4C)c4ccc(Cl)cc34)cc2)c1C.Cl (centres unmarked) [Compound 177]
Inhibition of platelet aggregation ex vivo (rat blood) in %, Gavage (oral) 10 mg/kg (platelet aggregation [2]; [5]): 63.9%

IC50 (platelet aggregation [1]; [4]): 0.32 µM
Structure (SMILES): CCCC(=O)c1cnn(-c2ccc(NC(=O)c3cn(CC(=O)N4CCN(CCF)CC4)c4ccc(C)cc34)cc2)c1C.Cl [Compound 133]
Inhibition of platelet aggregation ex vivo (rat blood) in %, Gavage (oral) 10 mg/kg (platelet aggregation [2]; [5]): 74.2%

IC50 (platelet aggregation [1]; [10]): 0.42 µM
Structure (SMILES): CCCC(=O)c1cnn(-c2ccc(NC(=O)c3cn(CC(=O)N4CC(C)N(C)C(C)C4)c4ccc(C)cc34)cc2)c1C (centres unmarked) [Compound 263]
